The record followed here is patent publication US10370338B2, “Benzazepine dicarboxamide compounds with tertiary amide function” (Hoffmann-La Roche Inc., priority 2016, dated 2019).

In one experiment the target is human TLR8 (Homo sapiens (Human), UniProt Q9NR97). Nature of the experiment: HEK-Blue human TLR8 cells NF-κB SEAP reporter assay. In kind it is cell-based. As to conditions: stimulation for 20 hours. The text has this: (§1) For TLR8 and TLR7 activity testing, HEK-Blue human TLR8 or TLR7 cells (Invivogen, San Diego, Calif., USA) are used, respectively. These cells are designed for studying the stimulation of human TLR8 or TLR7 by monitoring the activation of NF-κB. A SEAP (secreted embryonic alkaline phosphatase) reporter gene is placed under the control of the IFN-b minimal promoter fused to five NF-κB and AP-1-binding sites. Therefore the reporter expression is regulated by the NF-κB promoter upon stimulation of human TLR8 or TLR7 for 20 hours. The cell culture supernatant SEAP reporter activity was determined using Quanti Blue kit (Invivogen, San Diego, Ca, USA) at a wavelength of 640 nm, a detection medium that turns purple/blue in the presence of alkaline phosphatase. EC50 values were determined using Activity Base analysis (ID Business Solution, Limited).
Sequence of human TLR8 (Q9NR97 27-1041): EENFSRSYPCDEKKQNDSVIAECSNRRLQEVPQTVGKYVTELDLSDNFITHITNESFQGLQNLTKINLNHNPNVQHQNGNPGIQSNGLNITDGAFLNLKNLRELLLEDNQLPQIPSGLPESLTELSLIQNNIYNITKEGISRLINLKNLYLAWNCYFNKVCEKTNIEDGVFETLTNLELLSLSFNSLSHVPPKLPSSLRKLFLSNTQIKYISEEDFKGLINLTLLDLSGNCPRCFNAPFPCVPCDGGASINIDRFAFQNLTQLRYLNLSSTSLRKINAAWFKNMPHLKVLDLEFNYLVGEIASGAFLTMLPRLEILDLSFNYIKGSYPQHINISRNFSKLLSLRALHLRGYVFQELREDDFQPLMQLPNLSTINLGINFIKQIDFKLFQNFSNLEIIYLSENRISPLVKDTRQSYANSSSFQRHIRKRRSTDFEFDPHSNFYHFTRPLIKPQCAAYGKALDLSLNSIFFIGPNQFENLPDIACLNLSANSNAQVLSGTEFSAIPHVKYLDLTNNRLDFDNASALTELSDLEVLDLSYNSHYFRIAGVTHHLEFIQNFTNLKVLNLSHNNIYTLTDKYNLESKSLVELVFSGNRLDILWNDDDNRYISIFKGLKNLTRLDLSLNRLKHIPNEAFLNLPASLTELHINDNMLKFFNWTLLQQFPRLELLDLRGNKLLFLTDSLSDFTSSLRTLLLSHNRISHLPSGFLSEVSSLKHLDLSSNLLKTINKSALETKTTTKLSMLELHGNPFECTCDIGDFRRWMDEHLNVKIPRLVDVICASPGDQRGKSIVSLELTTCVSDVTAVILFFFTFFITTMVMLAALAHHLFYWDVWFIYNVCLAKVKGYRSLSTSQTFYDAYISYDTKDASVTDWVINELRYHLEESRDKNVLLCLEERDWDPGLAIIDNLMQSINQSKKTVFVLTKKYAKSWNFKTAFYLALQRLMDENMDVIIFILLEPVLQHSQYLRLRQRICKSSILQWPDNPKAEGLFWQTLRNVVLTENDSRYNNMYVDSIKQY
A general note: Reporter assays use an easily measured gene product as a stand-in for the process of interest.

Another experiment deals with human TLR7 (Homo sapiens (Human), UniProt Q9NYK1). Nature of the experiment: HEK-Blue human TLR7 cells NF-κB SEAP reporter assay. In kind it is cell-based. As to conditions: stimulation for 20 hours.
Sequence of human TLR7 (Q9NYK1 27-1049): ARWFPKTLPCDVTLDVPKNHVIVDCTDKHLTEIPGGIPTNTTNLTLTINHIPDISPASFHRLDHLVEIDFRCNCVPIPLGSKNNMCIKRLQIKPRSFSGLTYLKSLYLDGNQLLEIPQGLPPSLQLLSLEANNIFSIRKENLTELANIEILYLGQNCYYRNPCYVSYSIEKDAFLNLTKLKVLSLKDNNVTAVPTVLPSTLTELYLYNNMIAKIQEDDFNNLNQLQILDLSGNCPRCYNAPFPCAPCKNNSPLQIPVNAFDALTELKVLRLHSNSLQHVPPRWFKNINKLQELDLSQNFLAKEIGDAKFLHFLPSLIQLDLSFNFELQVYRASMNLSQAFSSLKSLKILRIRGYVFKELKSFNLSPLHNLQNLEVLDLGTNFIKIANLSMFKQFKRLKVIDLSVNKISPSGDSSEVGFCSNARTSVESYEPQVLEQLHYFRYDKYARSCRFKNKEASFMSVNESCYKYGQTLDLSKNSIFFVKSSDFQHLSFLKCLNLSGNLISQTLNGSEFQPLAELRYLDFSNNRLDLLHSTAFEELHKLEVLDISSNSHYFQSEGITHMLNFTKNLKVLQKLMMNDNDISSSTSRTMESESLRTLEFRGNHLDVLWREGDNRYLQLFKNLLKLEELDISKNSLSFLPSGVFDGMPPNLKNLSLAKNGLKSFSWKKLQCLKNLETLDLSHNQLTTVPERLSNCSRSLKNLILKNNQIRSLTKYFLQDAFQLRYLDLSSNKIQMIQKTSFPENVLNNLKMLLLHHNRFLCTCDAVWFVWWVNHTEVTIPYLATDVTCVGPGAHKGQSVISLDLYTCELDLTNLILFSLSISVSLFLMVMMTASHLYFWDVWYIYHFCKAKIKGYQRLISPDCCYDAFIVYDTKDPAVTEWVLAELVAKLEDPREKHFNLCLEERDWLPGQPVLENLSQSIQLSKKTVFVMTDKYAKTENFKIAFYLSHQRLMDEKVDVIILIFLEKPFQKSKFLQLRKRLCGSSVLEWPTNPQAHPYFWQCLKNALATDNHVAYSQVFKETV
Excerpt: as §1

Where only a bound is given, the exact number is not on record here.

For `CCCN(CCC)C(=O)C1=Cc2ccc(C(=O)N3CCC(CNc4ccccc4)CC3)cc2N=C(N)C1` [Example 20, 2-amino-8-[4-(anilinomethyl)piperidine-1-carbonyl]-N,N-dipropyl-3H-1-benzazepine-4-carboxamide], the EC50 (in general, the concentration needed to bring the measured effect to its halfway point) was found to be 0.02 µM on human TLR8 and 10 µM at human TLR7.
Taken in the same sequence, the figures for `CCCN(CCC)C(=O)C1=Cc2ccc(C(=O)N3CCCC(NCc4ccccc4)C3)cc2N=C(N)C1` (stereo not drawn) [Example 24, 2-Amino-8-[3-(benzylamino)piperidine-1-carbonyl]-N,N-dipropyl-3H-1-benzazepine-4-carboxamide] were 0.014 µM and 3.1 µM.
Taken in the same sequence, the figures for `CCCN(CCC)C(=O)C1=Cc2ccc(C(=O)N3CCC(CNc4ccccc4)C3)cc2N=C(N)C1` (stereo not drawn) [Example 21, 2-Amino-8-[3-(anilinomethyl)pyrrolidine-1-carbonyl]-N,N-dipropyl-3H-1-benzazepine-4-carboxamide] were 0.009 µM and 6.98 µM.
As for `CCCN(CCC)C(=O)C1=Cc2ccc(C(=O)N3CCN(c4ccccc4)CC3)cc2N=C(N)C1` [Example 6, 2-Amino-8-(4-phenylpiperazine-1-carbonyl)-N,N-dipropyl-3H-1-benzazepine-4-carboxamide], the results for the half-maximal effective concentration (EC50) at human TLR8 and at human TLR7 were 0.025 µM and 9 µM, respectively.
Taken in the same sequence, the figures for `CCCN(CCC)C(=O)C1=Cc2ccc(C(=O)N3CC4(CCN(c5ccccc5)CC4)C3)cc2N=C(N)C1` [Example 14, 2-Amino-8-(7-phenyl-2,7-diazaspiro[3.5]nonane-2-carbonyl)-N,N-dipropyl-3H-1-benzazepine-4-carboxamide] were 0.009 µM and 33 µM.
Taken in the same sequence, the figures for `CCCN(CCC)C(=O)C1=Cc2ccc(C(=O)N3CCC4(CC3)CN(c3ccccc3)C4)cc2N=C(N)C1` [Example 13, 2-Amino-8-(2-phenyl-2,7-diazaspiro[3.5]nonane-7-carbonyl)-N,N-dipropyl-3H-1-benzazepine-4-carboxamide] were 0.007 µM and above 100 µM.
Taken in the same sequence, the figures for `CCCN(CCC)C(=O)C1=Cc2ccc(C(=O)N3CC4CN(c5ccccc5)C4C3)cc2N=C(N)C1` (stereo not drawn) [Example 16, 2-Amino-8-(6-phenyl-3,6-diazabicyclo[3.2.0]heptane-3-carbonyl)-N,N-dipropyl-3H-1-benzazepine-4-carboxamide] were 0.029 µM and 12 µM.
On to `CCCN(CCC)C(=O)C1=Cc2ccc(C(=O)N3CCC(Nc4ccccc4)CC3)cc2N=C(N)C1` [Example 2, 2-Amino-8-(4-anilinopiperidine-1-carbonyl)-N,N-dipropyl-3H-1-benzazepine-4-carboxamide], for which the EC50 on human TLR8 is 0.006 µM; at human TLR7, 7.9 µM.
Regarding `CCCN(CCC)C(=O)C1=Cc2ccc(C(=O)N3CCN(Cc4ccccc4)CC3)cc2N=C(N)C1` [Example 10, 2-Amino-8-(4-benzylpiperazine-1-carbonyl)-N,N-dipropyl-3H-1-benzazepine-4-carboxamide], the half-maximal effective concentration (EC50) was 0.005 µM at human TLR8 and 14 µM at human TLR7.
Taken in the same sequence, the figures for `CCCN(CCC)C(=O)C1=Cc2ccc(C(=O)N3CCC(NCc4ccccc4)C3)cc2N=C(N)C1` (stereo not drawn) [Example 19, 2-Amino-8-[3-(benzylamino)pyrrolidine-1-carbonyl]-N,N-dipropyl-3H-1-benzazepine-4-carboxamide] were 0.014 µM and 6.6 µM.
For `CCCN(CCC)C(=O)C1=Cc2ccc(C(=O)N3CC4CC(C3)N4c3ccccc3)cc2N=C(N)C1` [Example 12, 2-Amino-8-(6-phenyl-3,6-diazabicyclo[3.1.1]heptane-3-carbonyl)-N,N-dipropyl-3H-1-benzazepine-4-carboxamide] the same measures were 0.022 µM and 11 µM.
Consider `CCCN(CCC)C(=O)C1=Cc2ccc(C(=O)N3CC(NCc4ccccc4)C3)cc2N=C(N)C1` [Example 17, 2-Amino-8-[3-(benzylamino)azetidine-1-carbonyl]-N,N-dipropyl-3H-1-benzazepine-4-carboxamide], for which the figures for the 50% effective concentration (EC50) on human TLR8 and on human TLR7 were 0.018 µM and 17 µM, respectively.
Taken in the same sequence, the figures for `CCCN(CCC)C(=O)C1=Cc2ccc(C(=O)N3CC(CNc4ccccc4)C3)cc2N=C(N)C1` [Example 4, 2-Amino-8-[3-(anilinomethyl)azetidine-1-carbonyl]-N,N-dipropyl-3H-1-benzazepine-4-carboxamide] were 0.01 µM and 10 µM.
With `CCCN(CCC)C(=O)C1=Cc2ccc(C(=O)N3CCCC(Nc4ccccc4)C3)cc2N=C(N)C1` (stereo not drawn) [Example 23, 2-Amino-8-(3-anilinopiperidine-1-carbonyl)-N,N-dipropyl-3H-1-benzazepine-4-carboxamide], the EC50 on human TLR8 stood at 0.008 µM; at human TLR7, 0.4 µM.
For `CCCN(CCC)C(=O)C1=Cc2ccc(C(=O)N3CC4(C3)CN(c3ccc(C)cc3)C4)cc2N=C(N)C1` [Example 1, 2-Amino-N,N-dipropyl-8-[6-(p-tolyl)-2,6-diazaspiro[3.3]heptane-2-carbonyl]-3H-1-benzazepine-4-carboxamide] the same measures were 0.005 µM and above 100 µM.
For `CCCN(CCC)C(=O)C1=Cc2ccc(C(=O)N3CC(Nc4ccccc4)C3)cc2N=C(N)C1` [Example 3, 2-Amino-8-(3-anilinoazetidine-1-carbonyl)-N,N-dipropyl-3H-1-benzazepine-4-carboxamide] the same measures were 0.005 µM and 24 µM.
For `CCCN(CCC)C(=O)C1=Cc2ccc(C(=O)N3CCCC3)cc2N=C(N)C1` [Example 8, 2-Amino-N,N-dipropyl-8-(pyrrolidine-1-carbonyl)-3H-1-benzazepine-4-carboxamide], the half-maximal effective concentration (EC50) at human TLR8 came out at 0.015 µM; on human TLR7, 21 µM.
Taken in the same sequence, the figures for `CCCN(CCC)C(=O)C1=Cc2ccc(C(=O)N3CCC(Nc4ccc(CN)cc4)C3)cc2N=C(N)C1` (stereo not drawn) [Example 18, 2-Amino-8-[3-[4-(aminomethyl)anilino]pyrrolidine-1-carbonyl]-N,N-dipropyl-3H-1-benzazepine-4-carboxamide] were 0.031 µM and above 100 µM.
Taken in the same sequence, the figures for `C/C=C/COC1CN(C(=O)c2ccc3c(c2)N=C(N)CC(C(=O)N(CCC)CCC)=C3)C1` [Example 22, 2-Amino-8-[3-[(E)-but-2-enoxy]azetidine-1-carbonyl]-N,N-dipropyl-3H-1-benzazepine-4-carboxamide] were 0.012 µM and 32 µM.
For `CCCN(CCC)C(=O)C1=Cc2ccc(C(=O)N3CCC(Nc4ccccc4)C3)cc2N=C(N)C1` (stereo not drawn) [Example 5, 2-Amino-8-(3-anilinopyrrolidine-1-carbonyl)-N,N-dipropyl-3H-1-benzazepine-4-carboxamide] the same measures were 0.004 µM and 14 µM.
In the case of `CCCN(CCC)C(=O)C1=Cc2ccc(C(=O)N3CC4(CCN(c5ccccc5)C4)C3)cc2N=C(N)C1` [Example 7, 2-Amino-8-(7-phenyl-2,7-diazaspiro[3.4]octane-2-carbonyl)-N,N-dipropyl-3H-1-benzazepine-4-carboxamide], the concentration for a half-maximal effect (EC50) on human TLR8 is 0.01 µM; on human TLR7, above 100 µM.
For `CCCN(CCC)C(=O)C1=Cc2ccc(C(=O)N3CC4CCC(C3)N4c3ccccc3)cc2N=C(N)C1` [Example 15, 2-Amino-8-(8-phenyl-3,8-diazabicyclo[3.2.1]octane-3-carbonyl)-N,N-dipropyl-3H-1-benzazepine-4-carboxamide] the same measures were 0.01 µM and 16 µM.
Taken in the same sequence, the figures for `CCCN(CC1CC1)C(=O)C1=Cc2ccc(C(=O)N3CCC(Nc4ccccc4)CC3)cc2N=C(N)C1` [Example 9, 2-Amino-8-(4-anilinopiperidine-1-carbonyl)-N-(cyclopropylmethyl)-N-propyl-3H-1-benzazepine-4-carboxamide] were 0.02 µM and 18 µM.
With `CCCCOC1CN(C(=O)c2ccc3c(c2)N=C(N)CC(C(=O)N(CCC)CCC)=C3)C1` [Example 25, 2-Amino-8-(3-butoxyazetidine-1-carbonyl)-N,N-dipropyl-3H-1-benzazepine-4-carboxamide], the half-maximal effective concentration (EC50) on human TLR8 worked out at 0.008 µM; at human TLR7, 31.1 µM.
